Consider nine compounds from patent US11701336B2, “Method of determining composition effective for treating diabetes” (priority 2015, dated 2023).

For series [1], the system named is diabetic patients. Description: Cancer in patients during diabetes mellitus treatment (survey and case reports). The note with it: person. It counts as in vivo, human. From the text:
On the other hand, it is widely known that the insulin itself may increase the risk of the cancer and many cancer patients can be found in the patients of the diabetes mellitus.

Series [2] deals with diabetic patients. As to the kind of experiment: HbA1c (glycated hemoglobin) of the patient under the prescription. As to conditions: person; May 17, 2016, only the new drug (DPP4 inhibitor), before metformin+BCAA. Format: in vivo, human.
Source text: (1) Step to measure HbA1c and lactate levels in patients
(3) Step to measure changes in HbA1c and lactate levels after administration of the composition to the patient,
In series [3] the test system is diabetic patients. As to the kind of experiment: Blood glucose of the patient (casual, postprandial, glycemic control). It counts as in vivo, human.
The conditions of series [4]: confirmed by manufacturers; cited from earlier work.
Series [5] has as its system diabetic patients. Description: Side effects and clinical course, opinion of the doctor. It counts as in vivo, human. The note with it: person; 4 mg antihypertensive diuretic. On the procedure: For each prescription example, the glycemic status of the patient that is dependent on the administered active components and the component amount is measured using HbA1c (glycated hemoglobin) along with changes in the lactic acid value, and opinion of the doctor is recorded together with the change in the values.

`CC#CCn1c(N2CCC[C@@H](N)C2)nc2c1c(=O)n(Cc1nc(C)c3ccccc3n1)c(=O)n2C` [Trazenta]: the “Cancer developed during diabetes mellitus treatment” value with diabetic patients [1] (Case (9), used until October 2018) is “A vesical cancer was developed”; in the series on diabetic patients [1] (Case (11), 5 mg, March 2019), “A liver cancer was developed”.
Turning to `Cc1cc(N2CCN([C@@H]3CN[C@H](C(=O)N4CCSC4)C3)CC2)n(-c2ccccc2)n1` [TENELIA], the “Cancer developed during diabetes mellitus treatment” value in the series with diabetic patients [1] (Case (15), dialysis, used until October 2017, April 2019) is given as “A lung cancer was developed”.
The compound `Cn1c(=O)cc(N2CCC[C@@H](N)C2)n(Cc2cc(F)ccc2C#N)c1=O` [Zafatek] displayed a HbA1c in the series on diabetic patients [2] of 5.6%. In the series with diabetic patients [3] (person, May 9, 2016, before metformin+BCAA was started), this compound gave a postprandial blood glucose of 246 mg/dL.
In the case of `CC(C)[C@H]1CC[C@H](C(=O)N[C@H](Cc2ccccc2)C(=O)O)CC1` [nateglinide], the Lactic acidosis entry in series [4] is “do not cause lactic acidosis”.
As for `NS(=O)(=O)c1cc2c(cc1Cl)NC(C(Cl)Cl)NS2(=O)=O` (stereo not drawn) [fluitran], in the series with diabetic patients [5], the “Effect on the condition of diabetes mellitus” value is on record as “worsened the condition of diabetes mellitus”.
`N#C[C@@H]1CCCN1C(=O)CNC12CC3CC(CC(O)(C3)C1)C2` [Equa]: in the series on diabetic patients [1] (Case (10)), the “Cancer developed during diabetes mellitus treatment” value is “a bowel cancer was developed”.
`N[C@@H](CC(=O)N1CCn2c(nnc2C(F)(F)F)C1)Cc1cc(F)c(F)cc1F` [JANUVIA, sitagliptin phosphate hydrate]: in the series on diabetic patients [1] (Case (13), treated from 2017, January 2019), the “Cancer developed during diabetes mellitus treatment” value is given as “A bone cancer was found”.
As for `O=C(O)[C@H](CC(=O)N1C[C@H]2CCCC[C@H]2C1)Cc1ccccc1` [GLUFAST], in series [4], the Lactic acidosis result is listed as “do not cause lactic acidosis”.
Regarding `CN(C)C(=N)NC(=N)N.Cl` [metformin, metformin hydrochloride], in the series on diabetic patients [1] (Case (19), metformin 250 mg after HD from May 2019, after radiation therapy, April 2020), the “Lung cancer by PET and MRI” value was “reduction of lung cancer was maintained and there was no metastasis”. The Blood sugar level entry with diabetic patients [3] (Case (19), metformin 250 mg after HD, as of August 2020) is given as “stable”.
